The numbers were not newly measured in PMC3202968 (Journal of the American Chemical Society, 2010), which cites them from elsewhere.

SMILES strings stand for the structures.

For the compound `Cc1cc(C)nc(N)c1` [2-amino-4,6-dimethylpyridine], the pKa result was “about 7.1”.
